The values that follow come from US12331046B2, “CTPS1 inhibitors and uses thereof” (Nimbus Clotho, Inc., priority 2020, dated 2025).

By IC50 is commonly meant the concentration needed to halve the response being measured.

The target of this assay is human CTPS1 (Homo sapiens (Human), UniProt P17812). The experiment in a line: hCTPS1 biochemical assay (ADP-Glo). The settings on record: hCTPS1 25 nM, ATP 120 uM, UTP 160 uM, GTP 60 uM, L-Glutamine 100 uM, 25 degrees C.
human CTPS1, sequence (P17812 whole entry): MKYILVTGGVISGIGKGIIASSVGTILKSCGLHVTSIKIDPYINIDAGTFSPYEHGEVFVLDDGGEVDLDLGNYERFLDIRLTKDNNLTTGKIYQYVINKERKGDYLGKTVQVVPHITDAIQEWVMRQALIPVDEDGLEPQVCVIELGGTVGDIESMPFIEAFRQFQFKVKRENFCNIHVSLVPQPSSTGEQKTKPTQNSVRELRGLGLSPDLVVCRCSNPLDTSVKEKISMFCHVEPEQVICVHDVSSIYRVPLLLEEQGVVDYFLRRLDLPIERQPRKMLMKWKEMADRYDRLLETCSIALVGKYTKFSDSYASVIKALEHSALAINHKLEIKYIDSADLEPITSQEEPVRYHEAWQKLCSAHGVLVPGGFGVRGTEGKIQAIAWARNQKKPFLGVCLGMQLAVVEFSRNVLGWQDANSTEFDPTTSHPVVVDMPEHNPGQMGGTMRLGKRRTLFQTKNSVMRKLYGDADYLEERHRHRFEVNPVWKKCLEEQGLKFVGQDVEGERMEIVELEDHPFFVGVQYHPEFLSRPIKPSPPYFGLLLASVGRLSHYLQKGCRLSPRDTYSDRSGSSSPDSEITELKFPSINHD

The compound `CCOc1cncc(-c2cnc(C(=O)N[C@@H](CN3CCCCC3)c3cc(NS(=O)(=O)C4CC4)ccn3)s2)n1` (single isomer, unassigned) [I-214] registered an IC50 below 100 nM.
In the case of `CCOc1cncc(-c2cnc(C(=O)N[C@@H](CN3CCC3)c3cc(NS(=O)(=O)C4CC4)ccn3)s2)n1` (single isomer, unassigned) [I-221] it was 100 to 1000 nM; in that of `CCOc1cncc(-c2cnc(C(=O)N[C@H](CN3CCC3)c3cc(NS(=O)(=O)C4CC4)ccn3)s2)n1` (single isomer, unassigned) [I-222], below 100 nM; in that of `CCOc1cncc(-c2cnc(C(=O)N[C@H](CN(C)C)c3cc(NS(=O)(=O)C4CC4)ccn3)s2)n1` (single isomer, unassigned) [I-233], below 100 nM.
In the case of `CCOc1cncc(-c2cnc(C(=O)N[C@@H](CN(C)C)c3cc(NS(=O)(=O)C4CC4)ccn3)s2)n1` (single isomer, unassigned) [I-234] it was below 100 nM; in that of `CCOc1cncc(-c2cnc(C(=O)N[C@@H](CN3CCOCC3)c3cc(NS(=O)(=O)C4CC4)ccn3)s2)n1` (single isomer, unassigned) [I-235], below 100 nM; in that of `CCOc1cncc(-c2cnc(C(=O)N[C@H](CN3CCOCC3)c3cc(NS(=O)(=O)C4CC4)ccn3)s2)n1` (single isomer, unassigned) [I-236], below 100 nM.
In the case of `CCOc1cncc(-c2ccc3c(c2)CN(C(CC)c2csc(NS(=O)(=O)C4CC4)n2)C3=O)n1` (stereo in doubt) [I-12, (R)—N-(4-(1-(5-(6-ethoxypyrazin-2-yl)-1-oxoisoindolin-2-yl)propyl)thiazol-2-yl)cyclopropanesulfonamide] it was below 100 nM.
In the case of `CCOc1cncc(-c2ccc3c(c2)CN(C(CC)c2csc(NS(=O)(=O)C4CC4)n2)C3=O)n1` (stereo in doubt) [I-12a, (S)—N-(4-(1-(5-(6-ethoxypyrazin-2-yl)-1-oxoisoindolin-2-yl)propyl)thiazol-2-yl)cyclopropanesulfonamide], the IC50 was 100 to 1000 nM.
In turn, `CCOc1cncc(-c2ccc(C(=O)N3CCCC3c3ccnc(NS(=O)(=O)C4CC4)n3)nc2)n1` (stereo in doubt) [I-34, N-[4-[(2S)-1-[5-(6-ethoxypyrazin-2-yl)pyridine-2-carbonyl]pyrrolidin-2-yl]pyrimidin-2-yl]cyclopropanesulfonamide] came in with an IC50 below 100 nM.
In the case of `CO[C@H]1CCN(c2cncc(-c3ccc(C(=O)NCc4cc(NS(=O)(=O)C5CC5)ccn4)cc3)n2)C1` (stereo in doubt) [I-45], the IC50 is at least 1000 nM.
To `CCOc1cncc(-c2ccc(C(=O)N3CCCC3c3ccnc(NS(=O)(=O)C4CC4)n3)nc2)n1` (stereo in doubt) [I-47, N-[4-[(2R)-1-[5-(6-ethoxypyrazin-2-yl)pyridine-2-carbonyl]pyrrolidin-2-yl]pyrimidin-2-yl]cyclopropanesulfonamide] belongs at least 1000 nM; to `O=C(NC1(c2csc(NS(=O)(=O)C3CC3)n2)CC1)c1ccc2ccccc2c1` [I-1, N-(1-(2-(cyclopropanesulfonamido)thiazol-4-yl)cyclopropyl)-2-naphthamide], 100 to 1000 nM; to `O=C(NC1(c2csc(NS(=O)(=O)C3CC3)n2)CC1)c1ccc2ccccc2n1` [I-2, N-(1-(2-(cyclopropanesulfonamido)thiazol-4-yl)cyclopropyl)quinoline-2-carboxamide], at least 1000 nM.
On to `O=C(NC1(c2csc(NS(=O)(=O)C3CC3)n2)CC1)c1cc2ccccc2cn1` [I-3, N-(1-(2-(cyclopropanesulfonamido)thiazol-4-yl)cyclopropyl)isoquinoline-3-carboxamide], for which the IC50 is at least 1000 nM.
For `O=C(NC1(c2csc(NS(=O)(=O)C3CC3)n2)CC1)c1ccc2cnccc2c1` [I-4, N-(1-(2-(cyclopropanesulfonamido)thiazol-4-yl)cyclopropyl)isoquinoline-6-carboxamide], the half-inhibitory concentration (IC50) was at least 1000 nM.
In the case of `O=C(NC1(c2csc(NS(=O)(=O)C3CC3)n2)CC1)c1cnc2ccccc2c1` [I-5, N-(1-(2-(cyclopropanesulfonamido)thiazol-4-yl)cyclopropyl)quinoline-3-carboxamide] it was at least 1000 nM.
`CCOc1cncc(-c2ccc3c(c2)CN(C(CC)c2csc(NS(=O)(=O)C4CC4)n2)C3=O)n1` (stereo not shown) [I-6, N-(4-(1-(5-(6-ethoxypyrazin-2-yl)-1-oxoisoindolin-2-yl)propyl)thiazol-2-yl)cyclopropanesulfonamide] yielded an IC50 below 100 nM.
Compound `O=C(NC1(c2csc(NS(=O)(=O)C3CC3)n2)CC1)c1ccc2ccncc2c1` [I-7, N-(1-(2-(cyclopropanesulfonamido)thiazol-4-yl)cyclopropyl)isoquinoline-7-carboxamide] gave an IC50 of at least 1000 nM.
Turning to `Cc1cn(-c2ccc(C(=O)NC3(c4csc(NS(=O)(=O)C5CC5)n4)CC3)nc2)cn1` [I-8, N-(1-(2-(cyclopropanesulfonamido)thiazol-4-yl)cyclopropyl)-5-(4-methyl-1H-imidazol-1-yl)picolinamide], the IC50 was at least 1000 nM.
The compound `O=C(NC1(c2csc(NS(=O)(=O)C3CC3)n2)CC1)c1ccc2ncccc2c1` [I-9, N-(1-(2-(cyclopropanesulfonamido)thiazol-4-yl)cyclopropyl)quinoline-6-carboxamide] registered an IC50 of at least 1000 nM.
To `O=C(NC1(c2csc(NS(=O)(=O)C3CC3)n2)CC1)c1ccc2cccnc2c1` [I-10, N-(1-(2-(cyclopropanesulfonamido)thiazol-4-yl)cyclopropyl)quinoline-7-carboxamide] belongs at least 1000 nM; to `O=C(NC1(c2csc(NS(=O)(=O)C3CC3)n2)CC1)c1ccc2c[n+]([O-])ccc2c1` [I-11, 6-(1-(2-(cyclopropanesulfonamido)thiazol-4-yl)cyclopropylcarbamoyl)isoquinoline 2-oxide], at least 1000 nM.
In the case of `CCOc1cncc(-c2ccc3c(c2)CN(C2(c4csc(NS(=O)(=O)C5CC5)n4)CC2)C3=O)n1` [I-13, N-(4-(1-(5-(6-ethoxypyrazin-2-yl)-1-oxoisoindolin-2-yl)cyclopropyl)thiazol-2-yl)cyclopropanesulfonamide] it was 100 to 1000 nM; in that of `CCOc1cncc(-c2ccc(C(=O)NC3(c4csc(N(C)S(=O)(=O)C5CC5)n4)CC3)nc2)n1` [I-14, 5-(6-ethoxypyrazin-2-yl)-N-(1-(2-(N-methylcyclopropanesulfonamido)thiazol-4-yl)cyclopropyl)picolinamide], at least 1000 nM.
To `CCOc1cncc(-c2ccc(C(=O)NCc3cc(NS(=O)(=O)C4CC4)ccn3)cc2)n1` [I-15, N-((4-(cyclopropanesulfonamido)pyridin-2-yl)methyl)-4-(6-ethoxypyrazin-2-yl) benzamide] belongs below 100 nM; to `CCOc1cncc(-c2ccc(C(=O)NCc3cc(NS(=O)(=O)C4CC4)ccn3)nc2)n1` [I-16], below 100 nM; to `CCOc1cncc(-c2ccc(C(=O)NCc3ccnc(NS(=O)(=O)C4CC4)c3)cc2)n1` [I-17, N-((2-(cyclopropanesulfonamido)pyridin-4-yl)methyl)-4-(6-ethoxypyrazin-2-yl)benzamide], 100 to 1000 nM.
On to `CCOc1cncc(-c2ccc(C(=O)NCc3cccc(NS(=O)(=O)C4CC4)c3)nc2)n1` [I-18, N-(3-(cyclopropanesulfonamido)benzyl)-5-(6-ethoxypyrazin-2-yl)picolinamide], for which the IC50 was in the range of 100 to 1000 nM.
In the case of `CCOc1cncc(-c2ccc(NC(=O)C(C)(C)n3ccc(NS(=O)(=O)C4CC4)n3)nc2)n1` [I-19, 2-(3-(cyclopropanesulfonamido)-1H-pyrazol-1-yl)-N-(5-(6-ethoxypyrazin-2-yl)pyridin-2-yl)-2-methylpropanamide] it was 100 to 1000 nM; in that of `CCOc1cncc(-c2ccc(C(=O)NC3(c4cccc5c4ccn5S(=O)(=O)C4CC4)CC3)nc2)n1` [I-20, N-(1-(1-(cyclopropylsulfonyl)-1H-indol-4-yl)cyclopropyl)-5-(6-ethoxypyrazin-2-yl)picolinamide], at least 1000 nM; in that of `CCOc1cncc(-c2ccc(C(=O)NCc3cc(NS(=O)(=O)C4CC4)ncn3)nc2)n1` [I-22, N-[(6-cyclopropanesulfonamidopyrimidin-4-yl)methyl]-5-(6-ethoxypyrazin-2-yl) pyridine-2-carboxamide], below 100 nM.
In the case of `CCOc1cncc(-c2ccc(C(=O)NCc3cc(NS(=O)(=O)C(F)(F)F)ccn3)nc2)n1` [I-23, 5-(6-ethoxypyrazin-2-yl)-N-((4-((trifluoromethyl)sulfonamido)pyridin-2-yl)methyl) picolinamide] it was below 100 nM.
`COc1cncc(-c2ccc(C(=O)NCc3cc(NS(=O)(=O)C4CC4)ccn3)nc2)n1` [I-24] registered an IC50 below 100 nM.
To `CCOc1cncc(-c2ccc(C(=O)NCc3cc(NS(=O)(=O)C4CC4)ccn3)c(F)c2)n1` [I-25] belongs below 100 nM; to `CCOc1cncc(-c2ccc(C(=O)NCc3cncc(NS(=O)(=O)C4CC4)c3)nc2)n1` [I-26, N-((5-(cyclopropanesulfonamido)pyridin-3-yl)methyl)-5-(6-ethoxypyrazin-2-yl) picolinamide], below 100 nM; to `CCOc1cncc(N2CCN(C(=O)NCc3cc(NS(=O)(=O)C4CC4)ccn3)CC2)n1` [I-27], 100 to 1000 nM.
To `CCOc1cncc(N2CCN(C(=O)NCc3cc(NS(=O)(=O)C4CC4)ccn3)C(=O)C2)n1` [I-28] belongs at least 1000 nM; to `CCOc1cncc(-c2ccc(C(=O)NCc3cc(NS(=O)(=O)C4CC4)ncn3)cc2)n1` [I-29, N-((6-(cyclopropanesulfonamido)pyrimidin-4-yl)methyl)-4-(6-ethoxypyrazin-2-yl)benzamide], below 100 nM; to `CCOc1cncc(-c2ccc(C(=O)NCc3cc(NS(=O)(=O)C(F)F)ccn3)nc2)n1` [I-30, N-[[4-(difluoromethanesulfonamido)pyridin-2-yl]methyl]-5-(6-ethoxypyrazin-2-yl) pyridine-2-carboxamide], below 100 nM.
To `Cc1cn2cc(-c3ccc(C(=O)NCc4cc(NS(=O)(=O)C5CC5)ccn4)nc3)cnc2n1` [I-31] belongs at least 1000 nM; to `CCOc1cncc(-c2ncc(C(=O)NCc3cc(NS(=O)(=O)C4CC4)ccn3)s2)n1` [I-32], below 100 nM.
Compound `CC(C)Oc1cncc(-c2ccc(C(=O)NCc3cc(NS(=O)(=O)C4CC4)ccn3)cc2)n1` [I-33] displayed an IC50 below 100 nM.
